Where “and” joins values, the source holds several entries; their conditions need not be identical. Identical values can stand only once.
Each molecule was assayed against T1, FPRL-1 (Homo sapiens, UniProt P25090) (assay: FPRL-1 Ga16-CHO compound-induced calcium activity (FLIPR Tetra)). Conditions: CHO-Gα16 cells stably expressing FPRL1; calcium activity on FLIPR Tetra; tested at 0.61 to 10,000 nM; read-out: FPRL-1 Ga16-CHO EC50.
T1 construct: expressed in transfected cells; host or cells: CHO-Gα16 cells stably expressing FPRL1
T1 sequence (P25090 1-351): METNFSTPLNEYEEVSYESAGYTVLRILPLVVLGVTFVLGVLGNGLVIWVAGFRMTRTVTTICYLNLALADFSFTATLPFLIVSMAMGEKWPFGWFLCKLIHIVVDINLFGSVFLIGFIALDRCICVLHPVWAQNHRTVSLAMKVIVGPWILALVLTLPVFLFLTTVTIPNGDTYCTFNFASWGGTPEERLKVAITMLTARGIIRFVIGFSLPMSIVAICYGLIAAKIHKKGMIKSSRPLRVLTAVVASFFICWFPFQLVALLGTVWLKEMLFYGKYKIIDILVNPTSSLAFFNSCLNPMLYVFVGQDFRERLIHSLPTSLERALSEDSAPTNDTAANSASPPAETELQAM
Format: cell-based
Description: HEK-Gα16 and CHO-Gα16 cells stably expressing FPRL1 were cultured in (F12, 10% FBS, 1% PSA, 400 μg/ml geneticin and 50 μg/ml hygromycin) and HEK-Gqi5 cells stable expressing FPR1 were cultured in (DMEM high glucose, 10% FBS, 1% PSA, 400 μg/ml geneticin and 50 μg/ml hygromycin). In general, the day before the experiment, 18,000 cells/well were plated in a 384-well clear bottom poly-d-lysine coated plate. The following day the screening compound-induced calcium activity was assayed on the FLIPR^Tetra. The drug plates were prepared in 384-well microplates using the EP3 and the MultiPROBE robotic liquid handling systems. Compounds were tested at concentrations ranging from 0.61 to 10,000 nM. Results are expressed as EC50 (nM) and efficacy values.

Structure (SMILES) | EC50
CC1(CCc2ccc(O)c(F)c2)NC(=O)N(NC(=O)Nc2ccc(Br)cc2F)C1=O (stereo not drawn) [Compound 48, 1-(4-Bromo-2-fluorophenyl)-3-{4-[2-(3-fluoro-4-hydroxyphenyl)ethyl]-4-methyl-2,5-dioxoimidazolidin-1-yl}urea] | 7.4 nM
COc1ccc(COCCC2(C(C)C)NC(=O)N(NC(=O)Nc3ccc(Br)cc3)C2=O)cc1 (stereo not drawn) [Compound 49, 1-(4-Bromophenyl)-3-(4-isopropyl-4-(2-((4-methoxybenzyl)oxy)ethyl)-2,5-dioxoimidazolidin-1-yl)urea] | 232 nM
CC1(CCc2ccccc2O)NC(=O)N(NC(=O)Nc2ccc(Br)cc2)C1=O (stereo not drawn) [Compound 50, 1-(4-Bromophenyl)-3-(4-(2-hydroxyphenethyl)-4-methyl-2,5-dioxoimidazolidin-1-yl)urea] | 0.97 nM
CC1(CCc2ccccc2O)NC(=O)N(NC(=O)Nc2ccc(Br)cc2F)C1=O (stereo not drawn) [Compound 51, 1-(4-Bromo-2-fluorophenyl)-3-(4-(2-hydroxyphenethyl)-4-methyl-2,5-dioxoimidazolidin-1-yl)urea] | 5.8 nM
CC1(CCc2cccc(O)c2)NC(=O)N(NC(=O)Nc2ccc(Br)cc2)C1=O (stereo not drawn) [Compound 52, 1-(4-Bromophenyl)-3-(4-(3-hydroxyphenethyl)-4-methyl-2,5-dioxoimidazolidin-1-yl)urea] | 1.5 nM and 2.07 nM
CC1(CCc2cccc(O)c2)NC(=O)N(NC(=O)Nc2ccc(Br)cc2F)C1=O (stereo not drawn) [Compound 53, 1-(4-Bromo-2-fluorophenyl)-3-(4-(3-hydroxyphenethyl)-4-methyl-2,5-dioxoimidazolidin-1-yl)urea] | 2.9 nM
CC1(CCc2ccncc2)NC(=O)N(NC(=O)Nc2ccc(Br)cc2)C1=O (stereo not drawn) [Compound 54, 1-(4-Bromophenyl)-3-(4-methyl-2,5-dioxo-4-(2-(pyridin-4-yl)ethyl)imidazolidin-1-yl)urea] | 30.2 nM
CC1(CCc2ccncc2)NC(=O)N(NC(=O)Nc2ccc(Br)cc2F)C1=O (stereo not drawn) [Compound 55] | 28.6 nM
COC(=O)c1ccc(CCC2(C)NC(=O)N(NC(=O)Nc3ccc(Br)cc3)C2=O)cc1 (stereo not drawn) [Compound 58, Methyl 4-(2-(1-(3-(4-Bromophenyl)ureido)-4-methyl-2,5-dioxoimidazolidin-4-yl)ethyl)benzoate] | 204 nM
COC(=O)c1ccccc1CCC1(C)NC(=O)N(NC(=O)Nc2ccc(Br)cc2)C1=O (stereo not drawn) [Compound 59, Methyl 2-(2-(1-(3-(4-bromophenyl)ureido)-4-methyl-2,5-dioxoimidazolidin-4-yl)ethyl)benzoate] | 28.9 nM
CCC1(CCc2ccccc2C(=O)OC)NC(=O)N(NC(=O)Nc2ccc(Br)cc2F)C1=O (stereo not drawn) [Compound 61, Methyl 2-(2-(1-(3-(4-bromo-2-fluorophenyl)ureido)-4-ethyl-2,5-dioxoimidazolidin-4-yl)ethyl)benzoate] | 14.9 nM
CC1(Cc2c[nH]c3ccccc23)NC(=O)N(NC(=O)Nc2ccc(Br)cc2)C1=O (stereo not drawn) [Compound 64, 1-(4-Bromophenyl)-3-[4-(1H-indol-3-ylmethyl)-4-methyl-2,5-dioxoimidazolidin-1-yl]urea] | 114 nM
CCc1ccc2[nH]c(C3(C)NC(=O)N(NC(=O)Nc4ccc(Br)cc4F)C3=O)cc2c1 (stereo not drawn) [Compound 65, 1-(4-Bromo-2-fluorophenyl)-3-[4-(5-ethyl-1H-indol-2-yl)-4-methyl-2,5-dioxoimidazolidin-1-yl]urea] | 169 nM
O=C(Nc1ccc(Br)cc1)NN1C(=O)NC(C2CC2)(C2CC2)C1=O [Compound 66, 1-(4-Bromophenyl)-3-(4,4-dicyclopropyl-2,5-dioxoimidazolidin-1-yl)urea] | 14.3 nM
CC(C)C1(C(C)C)NC(=O)N(NC(=O)Nc2ccc(Br)cc2)C1=O [Compound 67, 1-(4-Bromophenyl)-3-[2,5-dioxo-4,4-di(propan-2-yl)imidazolidin-1-yl]urea] | < 2 nM
CC(C)C1(CO)NC(=O)N(NC(=O)Nc2ccc(Br)cc2)C1=O (stereo not drawn) [Compound 74, 1-(4-Bromophenyl)-3-(4-(hydroxymethyl)-4-isopropyl-2,5-dioxoimidazolidin-1-yl)urea] | 2.65 nM
CC(C)C1(CCO)NC(=O)N(NC(=O)Nc2ccc(Br)cc2)C1=O (stereo not drawn) [Compound 75, 1-(4-Bromophenyl)-3-(4-(2-hydroxyethyl)-4-isopropyl-2,5-dioxoimidazolidin-1-yl)urea] | 21.2 nM
CC(C)C1(CO)NC(=O)N(NC(=O)Nc2ccc(Br)cc2F)C1=O (stereo not drawn) [Compound 76, 1-(4-Bromo-2-fluorophenyl)-3-(4-(2-hydroxymethyl)-4-isopropyl-2,5-dioxoimidazolidin-1-yl)urea] | 50 nM
CC1(CCc2ccc(C(=O)O)cc2)NC(=O)N(NC(=O)Nc2ccc(Br)cc2)C1=O (stereo not drawn) [Compound 77, 4-(2-(1-(3-(4-Bromophenyl)ureido)-4-methyl-2,5-dioxoimidazolidin-4-yl)ethyl)benzoic acid] | 210 nM
CC1(CCc2ccccc2C(=O)O)NC(=O)N(NC(=O)Nc2ccc(Br)cc2)C1=O (stereo not drawn) [Compound 78, 2-(2-(1-(3-(4-Bromophenyl)ureido)-4-methyl-2,5-dioxoimidazolidin-4-yl)ethyl)benzoic acid] | 17.2 nM
CCC1(CCc2ccccc2C(=O)O)NC(=O)N(NC(=O)Nc2ccc(Br)cc2F)C1=O (stereo not drawn) [Compound 80, 2-[2-(1-{[(4-Bromo-2-fluorophenyl)carbamoyl]amino}-4-ethyl-2,5-dioxoimidazolidin-4-yl)ethyl]benzoic acid] | 11.1 nM
CC(C)C1(CC(=O)O)NC(=O)N(NC(=O)Nc2ccc(Br)cc2)C1=O (stereo not drawn) [Compound 81, 2-(1-(3-(4-Bromophenyl)ureido)-4-isopropyl-2,5-dioxoimidazolidin-4-yl)acetic acid] | 459 nM
CC(C)C1(CC(=O)O)NC(=O)N(NC(=O)Nc2ccc(Br)cc2F)C1=O (stereo not drawn) [Compound 82, 2-(1-(3-(4-Bromo-2-fluorophenyl)ureido)-4-isopropyl-2,5-dioxoimidazolidin-4-yl)acetic acid] | 713 nM
CC(C)C1(CC(=O)NCCO)NC(=O)N(NC(=O)Nc2ccc(Br)cc2)C1=O (stereo not drawn) [Compound 84, 2-(1-(3-(4-Bromophenyl)ureido)-4-isopropyl-2,5-dioxoimidazolidin-4-yl)-N-(2-hydroxyethyl)acetamide] | 16.2 nM
CC(C)C1(CC(=O)NCC(=O)OC(C)(C)C)NC(=O)N(NC(=O)Nc2ccc(Br)cc2)C1=O (stereo not drawn) [Compound 85, tert-Butyl 2-(2-(1-(3-(4-bromophenyl)ureido)-4-isopropyl-2,5-dioxoimidazolidin-4-yl)acetamido)acetate] | 302 nM
CC(C)OP(=O)(CNC(=O)CC1(C(C)C)NC(=O)N(NC(=O)Nc2ccc(Br)cc2)C1=O)OC(C)C (stereo not drawn) [Compound 88, Diisopropyl((2-(1-(3-(4-bromophenyl)ureido)-4-isopropyl-2,5-dioxoimidazolidin-4-yl)acetamido)methyl)phosphonate] | 193 nM
CC(C)C1(CC(=O)NCCC(=O)OC(C)(C)C)NC(=O)N(NC(=O)Nc2ccc(Br)cc2)C1=O (stereo not drawn) [Compound 91, tert-Butyl 3-(2-(1-(3-(4-bromophenyl)ureido)-4-isopropyl-2,5-dioxoimidazolidin-4-yl)acetamido)propanoate] | 79.1 nM
CC(C)C1(CC(=O)NCC(=O)O)NC(=O)N(NC(=O)Nc2ccc(Br)cc2)C1=O (stereo not drawn) [Compound 92, 2-(2-(1-(3-(4-Bromophenyl)ureido)-4-isopropyl-2,5-dioxoimidazolidin-4-yl)acetamido)acetic acid] | 133 nM
CC(C)C1(CC(=O)NCCC(=O)O)NC(=O)N(NC(=O)Nc2ccc(Br)cc2)C1=O (stereo not drawn) [Compound 93, 3-(2-(1-(3-(4-Bromophenyl)ureido)-4-isopropyl-2,5-dioxoimidazolidin-4-yl)acetamido)propanoic acid] | 5.16 nM
CC(C)C1(CC(=O)NC(C)(C)C(=O)O)NC(=O)N(NC(=O)Nc2ccc(Br)cc2)C1=O (stereo not drawn) [Compound 95, 2-(2-(1-(3-(4-Bromophenyl)ureido)-4-isopropyl-2,5-dioxoimidazolidin-4-yl)acetamido)-2-methylpropanoic acid] | 109 nM

Same assay, conditions: FPRL-1 Ga16-CHO EC50, CHO-Gα16 cells stably expressing FPRL1; calcium activity on FLIPR Tetra; tested at 0.61 to 10,000 nM

Structure (SMILES) | EC50 [nM]
CCC1(CCc2ccccc2C(=O)OC)NC(=O)N(NC(=O)Nc2ccc(Br)cc2)C1=O (stereo not drawn) [Compound 60, Methyl 2-(2-(1-(3-(4-bromophenyl)ureido)-4-ethyl-2,5-dioxoimidazolidin-4-yl)ethyl)benzoate] | 10.3
CCOP(=O)(CNC(=O)CC1(C(C)C)NC(=O)N(NC(=O)Nc2ccc(Br)cc2)C1=O)OCC (stereo not drawn) [Compound 86, Diethyl((2-(1-(3-(4-bromophenyl)ureido)-4-isopropyl-2,5-dioxoimidazolidin-4-yl)acetamido)methyl)phosphonate] | 272
CCOP(=O)(O)CNC(=O)CC1(C(C)C)NC(=O)N(NC(=O)Nc2ccc(Br)cc2)C1=O (stereo not drawn) [Compound 89, Ethyl hydrogen((2-(1-(3-(4-bromophenyl)ureido)-4-isopropyl-2,5-dioxoimidazolidin-4-yl)acetamido)methyl)phosphonate] | 313
